Values quoted from earlier work, collected in patent US20040097481A1, “Water-soluble mesoporphyrin compounds and methods of preparation” (priority 2002, published 2004).

Conditions: product of the above-referenced known preparation methods

In the case of CCC1=C(C)c2cc3[n-]c(cc4[n-]c(cc5nc(cc1n2)C(C)=C5CC)c(C)c4CCC(=O)O)c(CCC(=O)O)c3C.[Cl-].[Cl-].[Sn+4] [stannsoporfin, Tin (IV) mesoporphyrin IX chloride], the Water solubility is given as “non-water soluble”.
